# The kinase profiling compilation of Christmann-Franck et al. (2016)
# Legend:
# Assay in all cases: KINOMEscan competition binding
# Conditions in all cases: compound 10.0 µM
# PRKAA1 (human) = PRKAA1 (human) (UniProt Q13131)
# CIT (human) = CIT (human) (UniProt O14578)
# [1] = tested on: ABL1 (human), P00519 [E255K]
# [2] = tested on: RET (human), P07949 [M918T]
# MKNK2 (human) = MKNK2 (human) (UniProt Q9HBH9)
# [3] = tested on: FLT3 (human), P36888 [D835H]
# MAPK8 (human) = MAPK8 (human) (UniProt P45983)
# FRK (human) = FRK (human) (UniProt P42685)
# Chain of FRK (human) (P42685 whole entry, looked up): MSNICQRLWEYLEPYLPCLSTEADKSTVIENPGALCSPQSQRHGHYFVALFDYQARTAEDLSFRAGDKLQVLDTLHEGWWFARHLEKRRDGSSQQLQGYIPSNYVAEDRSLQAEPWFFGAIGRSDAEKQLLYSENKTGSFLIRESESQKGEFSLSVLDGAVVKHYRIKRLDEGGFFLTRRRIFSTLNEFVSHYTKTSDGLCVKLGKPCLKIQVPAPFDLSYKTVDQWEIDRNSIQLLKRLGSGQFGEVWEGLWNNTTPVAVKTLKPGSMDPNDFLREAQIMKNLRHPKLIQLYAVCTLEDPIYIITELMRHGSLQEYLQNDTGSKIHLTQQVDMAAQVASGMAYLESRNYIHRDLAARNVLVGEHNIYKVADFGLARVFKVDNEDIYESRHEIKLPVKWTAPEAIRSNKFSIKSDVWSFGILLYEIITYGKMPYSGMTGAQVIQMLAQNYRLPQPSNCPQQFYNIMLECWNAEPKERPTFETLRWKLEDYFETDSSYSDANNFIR
# CAMK1G (human) = CAMK1G (human) (UniProt Q96NX5)
# [4] = tested on: FLT3 (human), P36888 [D835Y]
# MAP4K3 (human) = MAP4K3 (human) (UniProt Q8IVH8)
# FLT1 (human) = FLT1 (human) (UniProt P17948)
# [5] = molecular target: JAK1 JH1 catalytic (human) (UniProt P23458)
# LCK (human) = LCK (human) (UniProt P06239)
# CDK17 (human) = CDK17 (human) (UniProt Q00537)
# ABL2 (human) = ABL2 (human) (UniProt P42684)
# MAPK12 (human) = MAPK12 (human) (UniProt P53778)
# Chain of MAPK12 (human) (P53778 whole entry, looked up): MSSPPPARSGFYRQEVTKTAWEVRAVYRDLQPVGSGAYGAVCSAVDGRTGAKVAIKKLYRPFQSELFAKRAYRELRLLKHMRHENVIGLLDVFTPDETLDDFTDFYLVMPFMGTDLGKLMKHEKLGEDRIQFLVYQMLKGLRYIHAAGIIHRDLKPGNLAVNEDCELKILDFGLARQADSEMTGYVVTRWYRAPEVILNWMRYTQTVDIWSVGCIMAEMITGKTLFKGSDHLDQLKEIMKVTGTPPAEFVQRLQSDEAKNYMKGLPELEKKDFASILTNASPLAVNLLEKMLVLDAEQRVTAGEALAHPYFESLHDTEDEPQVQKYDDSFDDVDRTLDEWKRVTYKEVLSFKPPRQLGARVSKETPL
# LATS2 (human) = LATS2 (human) (UniProt Q9NRM7)
# TNNI3K (human) = TNNI3K (human) (UniProt Q59H18)
# Chain of TNNI3K (human) (Q59H18 whole entry, looked up): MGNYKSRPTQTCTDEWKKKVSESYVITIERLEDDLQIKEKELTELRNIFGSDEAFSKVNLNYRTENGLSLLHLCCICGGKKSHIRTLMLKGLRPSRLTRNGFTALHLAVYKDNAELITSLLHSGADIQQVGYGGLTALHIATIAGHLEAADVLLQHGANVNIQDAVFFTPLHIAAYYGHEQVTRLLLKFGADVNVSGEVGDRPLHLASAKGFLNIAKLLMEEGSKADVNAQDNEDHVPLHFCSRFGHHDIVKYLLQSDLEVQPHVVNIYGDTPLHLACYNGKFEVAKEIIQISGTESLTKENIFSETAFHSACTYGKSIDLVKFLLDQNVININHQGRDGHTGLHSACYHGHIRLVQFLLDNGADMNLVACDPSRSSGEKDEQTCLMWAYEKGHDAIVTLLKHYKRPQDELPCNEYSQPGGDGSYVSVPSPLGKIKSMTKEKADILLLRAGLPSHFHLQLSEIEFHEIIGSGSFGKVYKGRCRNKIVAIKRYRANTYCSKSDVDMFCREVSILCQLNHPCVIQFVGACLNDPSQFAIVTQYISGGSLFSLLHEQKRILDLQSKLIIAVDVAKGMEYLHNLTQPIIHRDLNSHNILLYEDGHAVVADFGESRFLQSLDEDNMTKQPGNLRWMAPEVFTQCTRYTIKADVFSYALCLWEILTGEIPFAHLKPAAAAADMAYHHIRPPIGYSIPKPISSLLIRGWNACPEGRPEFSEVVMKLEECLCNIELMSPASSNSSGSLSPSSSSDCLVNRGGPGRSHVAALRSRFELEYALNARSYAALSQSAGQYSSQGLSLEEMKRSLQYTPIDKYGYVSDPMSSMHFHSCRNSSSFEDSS
# FYN (human) = FYN (human) (UniProt P06241)
# [6] = tested on: EGFR (human), P00533 [A750P; 747-749 del]
# CDKL2 (human) = CDKL2 (human) (UniProt Q92772)
# INSRR (human) = INSRR (human) (UniProt P14616)
# CDK19 (human) = CDK19 (human) (UniProt Q9BWU1)
# TEK (human) = TEK (human) (UniProt Q02763)
# EPHA3 (human) = EPHA3 (human) (UniProt P29320)
# TNK1 (human) = TNK1 (human) (UniProt Q13470)
# EPHB2 (human) = EPHB2 (human) (UniProt P29323)
# SLK (human) = SLK (human) (UniProt Q9H2G2)
# Chain of SLK (human) (Q9H2G2 whole entry, looked up): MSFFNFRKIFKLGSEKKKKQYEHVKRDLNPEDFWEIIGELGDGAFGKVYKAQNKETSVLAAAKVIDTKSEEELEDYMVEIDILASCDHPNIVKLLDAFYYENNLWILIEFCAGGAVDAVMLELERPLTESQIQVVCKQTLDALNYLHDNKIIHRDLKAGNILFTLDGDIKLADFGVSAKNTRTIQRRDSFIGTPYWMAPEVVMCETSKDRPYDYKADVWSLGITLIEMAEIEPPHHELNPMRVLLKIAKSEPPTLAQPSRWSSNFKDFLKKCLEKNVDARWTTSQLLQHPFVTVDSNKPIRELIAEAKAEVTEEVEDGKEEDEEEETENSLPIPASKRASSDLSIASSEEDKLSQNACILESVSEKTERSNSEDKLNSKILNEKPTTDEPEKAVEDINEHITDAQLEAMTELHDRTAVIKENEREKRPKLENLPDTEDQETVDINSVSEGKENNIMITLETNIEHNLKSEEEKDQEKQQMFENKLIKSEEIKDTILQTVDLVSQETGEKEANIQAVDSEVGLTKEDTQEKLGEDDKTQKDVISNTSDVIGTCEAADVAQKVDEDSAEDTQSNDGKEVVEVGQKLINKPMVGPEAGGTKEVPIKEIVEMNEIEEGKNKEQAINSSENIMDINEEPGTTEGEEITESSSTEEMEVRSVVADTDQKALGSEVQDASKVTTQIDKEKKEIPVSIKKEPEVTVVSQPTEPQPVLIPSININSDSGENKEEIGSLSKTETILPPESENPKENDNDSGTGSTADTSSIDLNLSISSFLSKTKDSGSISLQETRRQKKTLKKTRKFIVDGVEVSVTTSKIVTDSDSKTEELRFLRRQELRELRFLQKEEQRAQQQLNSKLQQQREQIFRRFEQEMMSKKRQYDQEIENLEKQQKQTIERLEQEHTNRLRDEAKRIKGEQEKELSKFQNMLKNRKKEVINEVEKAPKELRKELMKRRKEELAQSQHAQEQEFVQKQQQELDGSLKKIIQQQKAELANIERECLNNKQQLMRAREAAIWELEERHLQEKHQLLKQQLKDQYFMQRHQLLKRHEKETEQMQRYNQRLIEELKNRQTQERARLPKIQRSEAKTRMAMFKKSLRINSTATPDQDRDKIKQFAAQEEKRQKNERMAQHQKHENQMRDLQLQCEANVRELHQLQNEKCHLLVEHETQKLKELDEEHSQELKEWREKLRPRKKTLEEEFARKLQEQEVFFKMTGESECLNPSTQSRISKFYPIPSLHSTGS
# [7] = tested on: EGFR (human), P00533 [L858R]
# FGFR3 (human) = FGFR3 (human) (UniProt P22607)
# CDK18 (human) = CDK18 (human) (UniProt Q07002)
# Chain of CDK18 (human) (Q07002 whole entry, looked up): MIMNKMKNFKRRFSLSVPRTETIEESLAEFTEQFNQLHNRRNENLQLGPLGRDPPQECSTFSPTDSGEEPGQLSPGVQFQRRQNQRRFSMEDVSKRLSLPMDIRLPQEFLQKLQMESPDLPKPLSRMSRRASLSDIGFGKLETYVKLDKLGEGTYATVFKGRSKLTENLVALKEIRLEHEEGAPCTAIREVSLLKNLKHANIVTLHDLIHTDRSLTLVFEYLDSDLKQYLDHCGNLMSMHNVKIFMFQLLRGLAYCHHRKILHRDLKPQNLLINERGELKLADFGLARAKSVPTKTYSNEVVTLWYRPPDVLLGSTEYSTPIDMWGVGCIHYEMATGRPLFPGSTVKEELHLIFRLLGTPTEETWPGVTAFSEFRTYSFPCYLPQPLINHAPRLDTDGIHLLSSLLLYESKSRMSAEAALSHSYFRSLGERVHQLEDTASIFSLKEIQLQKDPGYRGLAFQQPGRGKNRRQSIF
# EGFR (human) = EGFR (human) (UniProt P00533)
# ANKK1 (human) = ANKK1 (human) (UniProt Q8NFD2)
# Chain of ANKK1 (human) (Q8NFD2 whole entry, looked up): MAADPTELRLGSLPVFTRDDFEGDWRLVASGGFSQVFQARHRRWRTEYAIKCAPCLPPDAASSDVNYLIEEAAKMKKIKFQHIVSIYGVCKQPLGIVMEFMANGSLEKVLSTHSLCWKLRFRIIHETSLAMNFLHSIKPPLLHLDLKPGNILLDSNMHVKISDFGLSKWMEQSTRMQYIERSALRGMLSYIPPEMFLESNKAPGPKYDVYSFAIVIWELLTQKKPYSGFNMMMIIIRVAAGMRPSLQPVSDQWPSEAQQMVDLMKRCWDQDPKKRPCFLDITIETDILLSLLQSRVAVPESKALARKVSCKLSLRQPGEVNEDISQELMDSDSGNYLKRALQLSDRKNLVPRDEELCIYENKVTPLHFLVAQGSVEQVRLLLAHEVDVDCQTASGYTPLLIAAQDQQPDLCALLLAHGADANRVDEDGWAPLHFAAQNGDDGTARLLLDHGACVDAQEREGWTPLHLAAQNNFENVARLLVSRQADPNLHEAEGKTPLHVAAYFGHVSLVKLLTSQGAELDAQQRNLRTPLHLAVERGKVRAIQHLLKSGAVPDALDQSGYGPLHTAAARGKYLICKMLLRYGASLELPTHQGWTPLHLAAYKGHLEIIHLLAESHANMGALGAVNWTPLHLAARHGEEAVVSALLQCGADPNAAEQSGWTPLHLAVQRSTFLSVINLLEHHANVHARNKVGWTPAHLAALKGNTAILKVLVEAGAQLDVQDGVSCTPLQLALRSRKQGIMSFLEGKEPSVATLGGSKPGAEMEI
# PDGFRB (human) = PDGFRB (human) (UniProt P09619)
# [8] = tested on: ABL1 (human), P00519 [H396P]
# PRKCE (human) = PRKCE (human) (UniProt Q02156)
# [9] = tested on: FLT3 (human), P36888 [K663Q]
# CAMKK2 (human) = CAMKK2 (human) (UniProt Q96RR4)
# FER (human) = FER (human) (UniProt P16591)
# FES (human) = FES (human) (UniProt P07332)
# Chain of MKNK2 (human) (Q9HBH9 whole entry, looked up): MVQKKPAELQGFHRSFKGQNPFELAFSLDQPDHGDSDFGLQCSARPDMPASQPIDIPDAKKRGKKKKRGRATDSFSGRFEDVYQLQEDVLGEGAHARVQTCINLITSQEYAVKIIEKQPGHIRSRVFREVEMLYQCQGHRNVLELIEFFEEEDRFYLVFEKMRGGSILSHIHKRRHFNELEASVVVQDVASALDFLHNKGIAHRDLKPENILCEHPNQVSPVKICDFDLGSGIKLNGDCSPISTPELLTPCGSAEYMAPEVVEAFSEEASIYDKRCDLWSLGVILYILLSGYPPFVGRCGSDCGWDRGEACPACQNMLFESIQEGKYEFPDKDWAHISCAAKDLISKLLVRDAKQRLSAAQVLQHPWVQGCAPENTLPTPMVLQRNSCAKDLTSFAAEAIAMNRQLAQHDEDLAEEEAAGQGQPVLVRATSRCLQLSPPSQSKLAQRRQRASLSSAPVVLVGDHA
compound,measurement,setting,value
CCN1CCN(Cc2ccc(NC(=O)c3ccc(C)c(Oc4ccnc5[nH]ccc45)c3)cc2C(F)(F)F)CC1,"kinase still bound, per cent of control",PRKAA1 (human),33%
same,"kinase still bound, per cent of control",CIT (human),0.1%
same,"kinase still bound, per cent of control",[1],1.2%
same,"kinase still bound, per cent of control",[2],0%
same,"kinase still bound, per cent of control",MKNK2 (human),4.2%
same,"kinase still bound, per cent of control",[3],1.2%
same,"kinase still bound, per cent of control",MAPK8 (human),0%
same,"kinase still bound, per cent of control",FRK (human),0.7%
same,"kinase still bound, per cent of control",CAMK1G (human),20%
same,"kinase still bound, per cent of control",[4],14%
same,"kinase still bound, per cent of control",MAP4K3 (human),18%
same,"kinase still bound, per cent of control",FLT1 (human),1.6%
same,"kinase still bound, per cent of control",[5],11%
same,"kinase still bound, per cent of control",LCK (human),0.8%
same,residual activity,CDK17 (human),0.1%
same,"kinase still bound, per cent of control",ABL2 (human),0.6%
same,"kinase still bound, per cent of control",MAPK12 (human),0%
same,"kinase still bound, per cent of control",LATS2 (human),13%
same,"kinase still bound, per cent of control",TNNI3K (human),4.8%
same,"kinase still bound, per cent of control",FYN (human),1.6%
same,"kinase still bound, per cent of control",[6],1.5%
same,residual activity,CDKL2 (human),0.9%
same,"kinase still bound, per cent of control",INSRR (human),23%
same,residual activity,CDK19 (human),0.1%
same,"kinase still bound, per cent of control",TEK (human),0%
same,"kinase still bound, per cent of control",EPHA3 (human),3.4%
same,"kinase still bound, per cent of control",TNK1 (human),0.35%
same,"kinase still bound, per cent of control",EPHB2 (human),11%
same,"kinase still bound, per cent of control",SLK (human),2%
same,"kinase still bound, per cent of control",[7],14%
same,"kinase still bound, per cent of control",FGFR3 (human),9.4%
same,residual activity,CDK18 (human),1.8%
same,"kinase still bound, per cent of control",EGFR (human),5.6%
same,"kinase still bound, per cent of control",ANKK1 (human),23%
same,"kinase still bound, per cent of control",PDGFRB (human),0%
same,"kinase still bound, per cent of control",[8],0.7%
same,"kinase still bound, per cent of control",PRKCE (human),20%
same,"kinase still bound, per cent of control",[9],0%
same,"kinase still bound, per cent of control",CAMKK2 (human),28%
same,"kinase still bound, per cent of control",FER (human),0.5%
same,"kinase still bound, per cent of control",FES (human),2.2%
